Test results reported in PMC8547495 (Journal of medicinal chemistry, 2021).
pIC50, pKd: −log10 of the molar value. Entries after “also recorded” stand apart in the source; their conditions may differ.

What was measured:
A549 cells = conditions: for cytotoxicity compared with 1: at 100 μM; for concentration below which cytotoxicity was not observed: under the antiviral assay conditions, A549-hACE2
in vivo = conditions: male, C57BL/6, mouse, ip, 50 mg/kg
SARS-CoV-2 PLpro [1] = target: T1, SARS-CoV-2 PLpro (Severe acute respiratory syndrome coronavirus 2, UniProt P0DTD1); type: biochemical; conditions: for PLpro inhibition potency in words: compared with GRL0617 / parent
SARS-CoV-2 = conditions: at 33 μM, the maximum soluble dose; cited from earlier work
[2] = microsomes, 2 μM
SARS-CoV-2 PLpro [3] = target: T1, SARS-CoV-2 PLpro; test: biochemical; type: binding
SARS-CoV-2 USA/WA1/2020 = type: cell-based; conditions: 20 μM, remdesivir 10 μM / 20 μM

## Cc1ccc(NC2CNC2)cc1C(=O)N[C@H](C)c1cccc(-c2ccc(CNC3CCCC3)s2)c1 [XR8-23]
A549 cells
  cytotoxicity compared with 1: more cytotoxic than 1
  concentration below which cytotoxicity was not observed: < 10 µM
In vivo
  Cmax: 12 to 13 µM

## CC[C@@H](NC(=O)c1cc(N(C)C2CNC2)ccc1C)c1cccc2ccccc12 [ZN-3-61]
SARS-CoV-2 PLpro [1]
  PLpro inhibition potency in words: significant decrease in potency

## Cc1ccc(N)cc1C(=O)N[C@H](CCO)c1cccc2ccccc12 [DY2-97]
SARS-CoV-2 PLpro [1]
  PLpro inhibition potency in words: almost completely inactive

## COc1cc(CNC(=O)C2CCN(C(C)c3cccc4ccccc34)CC2)ccn1 (racemic) [rac5c]
SARS-CoV-2
  antiviral activity compared to remdesivir: 60%

## Cc1ccc(NC2CNC2)cc1C(=O)N[C@H](C)c1cccc(-c2cccs2)c1 [ZN-3-80]
[2]
  human liver microsome stability in words: more stable than GRL0617

## Cc1ccc(NC2CNC2)cc1C(=O)N[C@H](C)c1cccc2ccccc12 [ZN-2-184]
SARS-CoV-2 PLpro [3]; SPR
  improvement in affinity relative to GRL0617: two-fold improvement in affinity
SARS-CoV-2 PLpro [3]; relative to GRL0617, engaging Site I or BL2 groove alone
  gain in binding stabilization from SPR affinity: 0.57 kcal/mol

## CNC(=O)C[C@@H](NC(=O)c1cc(N(C)C2CNC2)ccc1C)c1cccc2ccccc12 [DY2-116]
SARS-CoV-2 PLpro [1]
  PLpro inhibition potency in words: almost completely inactive
SARS-CoV-2 PLpro [1]; read-out: Enzyme inhibition IC50, SARS-CoV-2 PLpro, Z-RLRGG-AMC substrate
  pIC50: < 4.00
SARS-CoV-2 PLpro [3]
  pKd: < 3.00

## Cc1ccc(NC2CNC2)cc1C(=O)N[C@H](C)c1cccc(-c2ccc(CN3CCCC3)s2)c1 [XR8-24]
SARS-CoV-2 USA/WA1/2020
  effect of treatment on viral RNA versus remdesivir: not significantly different from that of remdesivir; also recorded: not significantly different from the FDA-approved RdRp inhibitor remdesivir
A549 cells
  cytotoxicity compared with 1: more cytotoxic than 1
  concentration below which cytotoxicity was not observed: < 50 µM
In vivo
  Cmax: 12 to 13 µM
